Results reported in US12576155B2, “Senolytic and antiinflammatory prodrugs and methods of use thereof” (priority 2019, dated 2026).

Columns and labels:
[1] = test system: GLB1 knockdown (shGLB1-1 and -2) senescent cells; assay: Cell viability of GLB1 knockdown senescent cells; assay type: cell-based; settings: SSK1 0.5 μM; shGLB1-1 and -2 vs shControl
Procedure: Plasmids used to interfere the expression of GLB1 with short hairpin RNAs (shRNAs) were obtained from Sigma MISSION shRNA. Genetic knockdown was performed according to the manufacturer's protocol.
Lentivirus production, collection, and infection were as described (Zhao et al., Cell Stem Cell 3, 475-479(2008)).
To test the viability of senescent and non-senescent cells treated with SSK1, cells were stained with a mixture of Hoechst 33342 and propidium iodide (PI) (CA1120, Solarbio) to distinguish living and dead cells. After treatment with the small molecules, the cell culture medium was removed, and the cells were washed once with PBS. Then, the cells were stained according to the manufacturer's protocol, where the final concentrations of Hoechst 33342 and PI were 5 μg/ml and 2 μg/ml in PBS buffer. The plate was incubated at 4° C. for 30 min and observed on a fluorescence microscope or automatic cell imaging system. Viable cells were quantified using a MD Image Xpress Micro XL (Molecular Devices).

[2] = test system: naturally occurring senescent cells of aged mice; assay: SSK1 treatment of naturally aged mice (senescent cells, SASP, physical function, RNA-seq); assay type: in vivo, C57BL/6 mice
Procedure: All drugs were mixed in 90% PBS, 5% Tween-80 (P1754, Sigma), and 5% polyethylene glycol (PEG) (81172, Sigma) and administered to mice by intraperitoneal (i.p.) injection. For treating bleomycin-injured young mice, SSK1 (0.5 mg/kg) or vehicle were given consecutive two days every week for five weeks. For old mice (20-month-old), SSK1 (0.5 mg/kg), gemcitabine (0.5 mg/kg) or vehicle were administrated for continued 3 days every two weeks. Gemcitabine was purchased from MCE.
Cultured cells were washed once with PBS and fixed in β-galactosidase staining fix solution for 15 min at room temperature. Cells were then washed three times with PBS and incubated with β-galactosidase staining solution (Beyotime Biotechnology) for 16-20 hours at 37° C. For 12-well plates, 1 ml of β-galactosidase staining solution was added to each well. The plate was sealed with Parafilm to prevent evaporation of the staining medium. After the overnight incubation, cells were washed with PBS and observed under a bright field microscope. For β-galactosidase staining of frozen sections, the frozen sections were dried at 37° C. for 20-30 min and then fixed in β-galactosidase staining fix solution for 15 min at room temperature. The frozen sections were washed three times with PBS and incubated with β-galactosidase staining solution overnight at 37° C. After completion of β-galactosidase staining, the sections were stained with eosin for 1-2 min, rinsed under running water for 1 min, differentiated in 1% acid alcohol for 10-20 sec, and washed again under running water for 1 min. Sections were dehydrated in increasing concentrations of alcohols and cleared in xylene. Excess xylene was drained and a coverslip was placed over the section. After drying, the sample was observed under a microscope.
Lung, liver, and kidney frozen sections stained with SA-β-Gal were quantified by ImageJ software (NIH) to measure the SA-β-Gal positive area. The total area was quantified by eosin positive area with ImageJ software (NIH). The relative positive SA-β-Gal positive cells were calculated with the SA-β-Gal positive area divided by the total area. Each mouse was measured with 3-5 regions.
Mouse liver tissues were fixed in 4% paraformaldehyde (DingGuo, AR-0211) for 24 h at room temperature and dehydrated with graded sucrose solution (20% and 30% respectively 24 h) before embedded in OCT compound (Sakura) for cryosection. The embedded tissues were cut and affixed on slides. Before immunohistochemical staining, the sections were fixed in 4% paraformaldehyde (DingGuo, AR-0211) at room temperature for 15 min and blocked with PBS containing 0.25% Triton X-100 (Sigma-Aldrich, T8787) and 2% normal donkey serum (Jackson ImmunoResearch Laboratories, 017-000-121) at room temperature for 1 h. Samples for immunofluorescence staining were incubated with primary antibody: anti-F4/80 antibody (Abcam, ab6640) at 4° C. overnight, washed three times with PBS and then incubated with appropriate secondary antibodies: Alexa Fluor® 488 AffiniPure Donkey Anti-Rat IgG (H+L) (Jackson ImmunoResearch Laboratories, 712-545-150) for 1.5 h at 37° C. Nuclei were stained with Hoechst 33342 (Sigma-Aldrich, B2261).
For quantification of F4/80 positive cells, images were randomly taken at 20× magnification at the same exposure using confocal laser endomicroscopy (LSM 710 NLO &DuoScan System) and then analyzed by ImageJ. Each mouse was measured with at least 6-10 regions.
Total RNA was isolated using the Direct-zol RNA MiniPrep Kit (Zymo Research, R2072). RNA was treated with DNase and converted to cDNA using TransScript First-Strand cDNA Synthesis SuperMix (TransGen Biotech, AT311-03). qPCR was performed using Kapa SYBR® FAST qPCR Kit Master Mix (Kapa Biosystems, KM4101) on a CFX Connect™ Real-Time System or CFX96™ Real-Time System (Bio-Rad). Data were analyzed using the 2^(−ΔΔCt) method. Gapdh was used as a control to normalize the expression of target genes. […]

[3] = 20-month-old mice, SSK1 0.5 mg/kg i.p. intermittently for 8 weeks
[4] = aged mice, SSK1 0.5 mg/kg vs vehicle
[5] = old female mice, 8 weeks, vs vehicle

CC(=O)OCC1O[C@@H](Oc2ccc(COC(=O)Nc3ccn([C@@H]4O[C@H](CO)C(O)C4(F)F)c(=O)n3)cc2[N+](=O)[O-])C(OC(C)=O)C(OC(C)=O)[C@H]1OC(C)=O (stereo partly shown) [SSK1]
Effect of GLB1 knockdown on killing of senescent cells by SSK1 [1]: impaired the ability of SSK1 to kill SA-β-gal-positive senescent cells
Elimination of β-gal-positive senescent cells vs vehicle, kidney [2, 3]: 3.5 fold
Elimination of β-gal-positive senescent cells vs vehicle, liver [2, 3]: 5.9 fold
Elimination of β-gal-positive senescent cells vs vehicle, lung [2, 3]: 2 fold
GO pathways related to liver function (oxidation-reduction process, metabolic process, fatty acid beta-oxidation, mitochondrion) ([2]; aged livers vs vehicle): up-regulated
Genes associated with inflammatory response, TNFα signaling via NF-κB, IL6 JAK Stat3 signaling and complement (GSEA) ([2]; aged mice livers and kidneys vs vehicle): down regulated
Age-associated signature (GSEA) in aged livers and kidneys ([2]; aged mice vs vehicle): decreased
Expression of senescent markers p16 (in liver) and p21 (in liver and kidney), RT-qPCR ([2]; aged mice vs vehicle): decreased expression
Inflammatory factors IL1α and IL1β in aged liver and IL6 in aged kidneys, RT-qPCR ([2]; aged mice vs vehicle): decreased
F4/80 positive macrophages infiltration in livers (immunofluorescence) ([2]; aged mice, SSK1 0.5 mg/kg): could delete macrophages infiltration
Gene signature associated with senescence (GSEA), livers and kidneys [2, 4]: downregulate
Secretion of SASP factors IL1α, IL6, CXCL1 and TNFα in serum (ELISA) [2, 4]: decreased secretion
Rotarod, treadmill, and grip strength functions vs other senolytic drugs (fisetin, 17-DMAG, ABT263, dasatinib and quercetin) ([2]; aged mice, FIG. 4J): improved the rotarod, treadmill, and grip strength functions when compared to the other senolytic compounds
Body weight ([2]; old female mice, 8 weeks): without significant effect on body weight
Balance beam crossing time [2, 5]: decreased
Grip strength [2, 5]: significantly increased
Maximal rotarod time [2, 5]: significantly increased
Rearing exploration times [2, 5]: significantly increased
Treadmill distance [2, 5]: significantly increased
Rotarod, treadmill, and grip strength performance ([2]; old male mice, SSK1 0.5 mg/kg vs vehicle): same results were also observed
Liver fibrosis (Masson fibrosis staining) ([2]; old mice vs vehicle): attenuate liver fibrosis
Rotarod and treadmill performance after vs before treatment ([2]; old mice, SSK1 0.5 mg/kg): improved over the initial state before treatment
